Our source for the IC50 values is BindingDB's records for doi:10.1021/np970376z (Aoyama Gakuin University, 1998).

pIC50: −log10 of the molar value.

The target of the assay is Prothrombin (Homo sapiens, UniProt P00734). In words: Inhibition of thrombin.

For `CC1(C)CCC[C@H]2[C@H]1CC[C@@]1(C)[C@@H]2CC/C(=C\OS(=O)(=O)O)[C@@H]1CCc1ccoc1` [listing 1 of 2 here], the pIC50 (usually the IC50 on a negative log10 scale, so that one unit is a factor of ten) was 4.37.
Take `CC1(C)CCC[C@H]2[C@H]1CC[C@@]1(C)[C@@H]2CC/C(=C\OS(=O)(=O)O)[C@@H]1CCc1ccoc1` [listing 2 of 2 here]: the pIC50 is 4.32.
For the compound `C/C(=C\Cc1cc(O)ccc1O)CCC[C@@H](C)[C@@H](C[C@@H]1CCC[C@H]2C(C)(C)CCC[C@@]12C)OS(=O)(=O)O`, the pIC50 is less than 3.87.
